Results: patent US8895504B2, “Amylin derivatives” (priority 2008, dated 2014)
*1 amine or outer side, *2 acyl side, *3 side chain or, on linkers, in order; H or OH if unused. Where a SMILES comes first, the peptide text is derived from it. Bridges are numbered along the chain shown (N, C = ends). The star is where a group is joined. C20 diacid = O=C(O)CCCCCCCCCCCCCCCCCCC(=O)*; γGlu = O=C(O)[C@H](CCC(=O)[*:2])N[*:1]

Tests used:
[1] = Assay (VI) PK - determination of T½ in rat; type: in vivo; conditions: sc, terminal plasma half-life, subcutaneous, approx 20 nmol/kg, male Sprague Dawley rats
Protocol: Assay (VI) PK—Determination OF T½ in Rat
T½ is the terminal half-life=ln 2/λz of a compound in plasma. λz is the first order rate constant associated with the terminal (log-linear) portion of the plasma concentration-time curve and is estimated by linear regression of time vs. log concentration.
T½ values of the amylin analogues of the invention is determined by pharmacokinetic studies in Sprague Dawley male rats, from Taconic Europe and the principles of laboratory animal care are followed.
An acclimatization period of approximately 7 days was allowed before the animals entered the study. At start of the acclimatization period the rats were in the weight range of 300-400 g. The rats had permanent catheters inserted in a. carotis which were used for blood sampling.
The studies were conducted in an animal room which was illuminated to give a cycle of approx 12 hours light and 12 hours darkness. The animals were housed individually due to the catheters and had food and water ad lib. The animals were weighed on the days of dosing.
In the present studies the test substances were administered subcutaneously in approx 20 nmol/kg dose. The animals received a single subcutaneous injection to the neck using a 25 G needle with syringe. Each test substance was given to typically three but in some cases two or four animals.
A full plasma concentration-time profile, employing 8-10 sampling points, was obtained from each animal. In example blood samples were collected according to the following schedule:
After subcutaneous administration:
Predose (0), 0.5, 1, 1.5, 2, 4, 6, 12, 24, 48 and 72 hours after injection. At each sampling time, 0.08 to 0.10 ml of blood was drawn from each animal. The blood samples were taken via the catheter.
The blood samples were collected into EDTA test tubes. Blood samples were kept on ice for max 20 min. before centrifugation. Plasma was separated using centrifugation (i.e. at 4° C., 10 min., 1500 G) and was immediately transferred to Micronic tubes or PCR plates. Approximately 40 μl plasma was transferred and was stored at −20° C. until assayed. The plasma samples were assayed for the content of amylin using an ELISA assay.
The plasma concentration-time profiles were analysed by a non-compartmental pharmacokinetic analysis (NCA) using WinNonlin Professional 5.0 (Pharsight Inc., Mountain View, Calif., USA). NCA was performed using the individual plasma concentration-time profiles from each animal. T½ is the terminal half-life=ln 2/λz and was determined from λz, the first order rate constant associated with the terminal (log-linear) portion of the curve, estimated by linear regression of time vs. log concentration.
ELISA Plasma Assay for Amylin Quantification
The human amylin ELISA is a monoclonal antibody-based sandwich immunoassay for determining amylin levels in human plasma. The capture antibody recognizes human amylin, amylin acid (deamidated amylin), a 1-20 fragment of amylin, but not reduced amylin. The detection antibody binds to reduced or unreduced human amylin but not amylin acid and is complexed with streptavidin-alkaline phosphatase. The substrate, 4-methylumbelliferyl phosphate, is applied to the completed sandwich and the fluorescent signal, monitored at 355 nm/460 nm, is proportional to the amount of amylin present in the sample.

[2] = target: T1, Amylin 3(a) receptor (human calcitonin receptor (CTa) and RAMP-3) (Homo sapiens, UniProt O60896+P30988); assay: Luciferase assay (III), BHK Amylin 3(a)//CRE-luc cells; type: cell-based; conditions: BHK cells with Amylin 3(a) receptor and CRE luciferase reporter, 4 hours incubation; read-out: Potency Luciferase
T1 construct: expressed in transfected cells; host or cells: BHK570 cells, stably transfected with a CRE-luciferase reporter
Summary of the method: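 BHK570 cells stably expressing CTa, RAMP-3 and a CRE-luciferase reporter, seeded at about 20,000 cells/well and grown overnight. Cells were exposed to standard or sample for 4 h at 37° C in phenol red-free DMEM with 10% FBS and 10 mM Hepes, pH 7,4. Luminescence was read after 30 min LucLite at room temperature.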

T1 sequence (O60896 24-148): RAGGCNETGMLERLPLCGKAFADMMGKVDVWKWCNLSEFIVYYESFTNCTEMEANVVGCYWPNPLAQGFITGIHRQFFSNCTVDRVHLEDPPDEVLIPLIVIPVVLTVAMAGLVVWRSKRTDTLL
T1 sequence (P30988 25-474): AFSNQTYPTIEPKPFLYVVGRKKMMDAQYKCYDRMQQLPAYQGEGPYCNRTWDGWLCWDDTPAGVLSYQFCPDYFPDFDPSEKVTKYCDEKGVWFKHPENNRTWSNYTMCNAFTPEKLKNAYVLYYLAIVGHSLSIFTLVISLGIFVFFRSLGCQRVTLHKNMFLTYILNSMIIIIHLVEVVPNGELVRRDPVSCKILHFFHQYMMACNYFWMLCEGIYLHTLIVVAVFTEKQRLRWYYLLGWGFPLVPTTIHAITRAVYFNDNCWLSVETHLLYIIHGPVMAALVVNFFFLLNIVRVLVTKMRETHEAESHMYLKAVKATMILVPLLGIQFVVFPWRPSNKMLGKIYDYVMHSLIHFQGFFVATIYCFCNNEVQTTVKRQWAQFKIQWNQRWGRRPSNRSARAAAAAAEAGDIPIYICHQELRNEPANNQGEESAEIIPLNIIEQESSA

Compound: CC[C@H](C)[C@H](NC(=O)[C@@H]1CCCN1C(=O)CNC(=O)[C@H](Cc1ccccc1)NC(=O)[C@H](CC(N)=O)NC(=O)[C@H](CC(N)=O)NC(=O)[C@H](CO)NC(=O)[C@H](CO)NC(=O)[C@H](Cc1c[nH]cn1)NC(=O)[C@H](Cc1c[nH]cn1)NC(=O)[C@H](CC(C)C)NC(=O)[C@H](Cc1ccccc1)NC(=O)[C@H](CC(N)=O)NC(=O)[C@H](C)NC(=O)[C@H](CC(C)C)NC(=O)[C@H](CCCNC(=N)N)NC(=O)[C@H](CCC(N)=O)NC(=O)[C@@H](NC(=O)[C@H](C)NC(=O)[C@@H]1CSSC[C@H](NC(=O)[C@H](Cc2c[nH]cn2)NC(=O)[C@H](Cc2c[nH]cn2)NC(=O)[C@H](Cc2c[nH]cn2)NC(=O)CC[C@H](NC(=O)CCCCCCCCCCCCCCCCCCC(=O)O)C(=O)O)C(=O)N[C@@H](CC(N)=O)C(=O)N[C@@H]([C@@H](C)O)C(=O)N[C@@H](C)C(=O)N[C@@H]([C@@H](C)O)C(=O)N1)[C@@H](C)O)C(=O)N[C@@H](CC(C)C)C(=O)N1CCC[C@H]1C(=O)N1CCC[C@H]1C(=O)N[C@H](C(=O)N[C@@H](CC(N)=O)C(=O)N[C@H](C(=O)NCC(=O)N[C@@H](CO)C(=O)N[C@@H](CC(N)=O)C(=O)N[C@H](C(=O)N[C@@H](Cc1ccc(O)cc1)C(N)=O)[C@@H](C)O)C(C)C)[C@@H](C)O [Example 39, N-alpha-[(S)-4-Carboxy-4-(19-carboxynonadecanoylamino)butyryl]-His-His-[His1,His17]-pramlintide] ({C20 diacid-γGlu}-HHHCNTATCATQRLANFLHHSSNNFGPILPPTNVGSNTY-NH2; disulfide 4-9)
- half-life [1]: 840 min
- EC50 [2]: 0.06 nM
